The source of these data is ChEMBL document CHEMBL6083202, “The isolation of sclerotinin A as an anti-malarial compound by utilization of a global secondary metabolism regulator, laeA gene” (Bioorg Med Chem Lett, 2024).

Values after ≈ are worked out from the molar mass of the structure shown. Active and inactive are the calls of the source. The calls are words filed in the database; no cut-off is given here.

A short description of data set [1]: Cytotoxicity against human MRC5 cells. It counts as toxicity, cell-based.
Data set [2] in a line: Selectivity index, ratio of IC50 for human HepG2 cells to IC50 for chloroquine-resistant Plasmodium falciparum K1. Particulars: read-out: Ratio IC50. In kind it is toxicity, cell-based.
The nature of data set [3]: Selectivity index, ratio of IC50 for human A549 cells to IC50 for chloroquine-resistant Plasmodium falciparum K1. In kind it is toxicity, cell-based. Particulars: read-out: Ratio IC50.
Data set [4] concerns Plasmodium falciparum. The data set is described as follows: Antimalarial activity against chloroquine-sensitive Plasmodium falciparum FCR3. In kind it is functional, organism-based.
Data set [5] can be described thus: Selectivity index, ratio of IC50 for human A549 cells to IC50 for chloroquine-sensitive Plasmodium falciparum FCR3. It counts as toxicity, cell-based. Particulars: read-out: Ratio IC50.
Data set [6] is described as follows: Cytotoxicity against human A549 cells. In kind it is toxicity, cell-based.
Data set [7] can be described thus: Selectivity index, ratio of IC50 for human HeLa cells to IC50 for chloroquine-resistant Plasmodium falciparum K1. It counts as toxicity, cell-based. Particulars: read-out: Ratio IC50.
Data set [8] can be described thus: Selectivity index, ratio of IC50 for human MRC5 cells to IC50 for chloroquine-sensitive Plasmodium falciparum FCR3. In kind it is toxicity, cell-based. Particulars: read-out: Ratio IC50.
The test system of data set [9] is Plasmodium falciparum. As to the kind of experiment: Antimalarial activity against chloroquine-resistant Plasmodium falciparum K1. In kind it is functional, organism-based.
Data set [10] deals with Saccharomyces cerevisiae. As to the kind of experiment: Antifungal activity against multidrug sensitive Saccharomyces cerevisiae 12gene mutant 0HSR-iERG6 at 10 ug. Particulars: dose 10.0 µg. In kind it is functional, organism-based.
Data set [11] can be described thus: Selectivity index, ratio of IC50 for human MRC5 cells to IC50 for chloroquine-resistant Plasmodium falciparum K1. It counts as toxicity, cell-based. Particulars: read-out: Ratio IC50.
The nature of data set [12]: Selectivity index, ratio of IC50 for human HeLa cells to IC50 for chloroquine-sensitive Plasmodium falciparum FCR3. In kind it is toxicity, cell-based. Particulars: read-out: Ratio IC50.
Data set [13] can be described thus: Selectivity index, ratio of IC50 for human HepG2 cells to IC50 for chloroquine-sensitive Plasmodium falciparum FCR3. It counts as toxicity, cell-based. Particulars: read-out: Ratio IC50.
A short description of data set [14]: Cytotoxicity against human HepG2 cells. It counts as toxicity, cell-based.
A short description of data set [15]: Cytotoxicity against human HeLa cells. It counts as toxicity, cell-based.

As usually defined, the IC50 is the point on the concentration scale where inhibition reaches its midpoint. On to `Cc1c(O)c(C)c2c(c1O)C(=O)OC(C)(O)[C@H]2C` (stereo not given in full), for which the IC50 in [1] worked out at 1.2 µg/mL (≈ 4.76 µM); in data set [4], 0.62 µg/mL (≈ 2.46 µM); in [6] it was 15.9 µg/mL (≈ 63 µM); in [9] it was 0.87 µg/mL (≈ 3.45 µM); in data set [14], 3.91 µg/mL (≈ 15.5 µM); in data set [15], 9.88 µg/mL (≈ 39.2 µM). Moreover, the selectivity ratio came out at 4.49 in data set [2]; 18.3 in data set [3]; 25.6 in data set [5]; 11.4 in [7]; 2 in data set [8]; 1.4 in [11]. The selectivity ratio in data set [12] was determined as 15.9; in data set [13], 6.31. Besides, in data set [10], the result was inactive.
